Source: PubChem BioAssay AID1259407 (Chemical Carcinogenesis Research Information System (CCRIS), 2018)
Calls of active or inactive are those of the source. How the calls were made is not given here.

Test system: CCRIS mutagenicity, Ames/micronucleus/aberration tests
Experiment: CCRIS mutagenicity studies
Source text: The CCRIS database contains chemical records with carcinogenicity, mutagenicity, tumor promotion, and tumor inhibition test results. It was developed by the National Cancer Institute (NCI). Data are derived from studies cited in primary journals, current awareness tools, NCI reports, and other sources. Test results have been reviewed by experts in carcinogenesis and mutagenesis.
CCRIS provides historical information from the years 1985 - 2011. It is no longer updated.
This is an archive assay for CCRIS mutagenicity studies.

[1] = Test System: AMES SALMONELLA TYPHIMURIUM, Strain/Indicator: TA98, Metabolic Activation: NONE, Method: PREINCUBATION
[2] = Test System: AMES SALMONELLA TYPHIMURIUM, Strain/Indicator: TA100, Metabolic Activation: NONE, Method: PREINCUBATION
[3] = Test System: AMES SALMONELLA TYPHIMURIUM, Strain/Indicator: TA100, Metabolic Activation: RAT, LIVER, S-9, AROCLOR 1254, Method: PREINCUBATION
[4] = Test System: MOUSE LYMPHOMA, Strain/Indicator: L5178Y (TK+/TK-), Metabolic Activation: NONE, Method: SUSPENSION/PLATE
[5] = Test System: AMES SALMONELLA TYPHIMURIUM, Strain/Indicator: TA98, Metabolic Activation: NONE, Method: STANDARD PLATE
[6] = Test System: AMES SALMONELLA TYPHIMURIUM, Strain/Indicator: TA100, Metabolic Activation: NONE, Method: STANDARD PLATE
[7] = Test System: AMES SALMONELLA TYPHIMURIUM, Strain/Indicator: TA1535, Metabolic Activation: NONE, Method: STANDARD PLATE
[8] = Test System: AMES SALMONELLA TYPHIMURIUM, Strain/Indicator: TA1537, Metabolic Activation: NONE, Method: STANDARD PLATE
[9] = Test System: AMES SALMONELLA TYPHIMURIUM, Strain/Indicator: TA1538, Metabolic Activation: NONE, Method: STANDARD PLATE

CC(I)C1OCC(CO)O1 (centres undefined)
mutagenic call (Test System: AMES SALMONELLA TYPHIMURIUM, Strain/Indicator: TA98, Metabolic Activation: HAMSTER, LIVER, S-9, AROCLOR 1254, Method: PREINCUBATION): inactive; negative | mutagenic call [1]: inactive; negative | mutagenic call (Test System: AMES SALMONELLA TYPHIMURIUM, Strain/Indicator: TA98, Metabolic Activation: RAT, LIVER, S-9, AROCLOR 1254, Method: PREINCUBATION): inactive; negative | mutagenic call (Test System: AMES SALMONELLA TYPHIMURIUM, Strain/Indicator: TA100, Metabolic Activation: HAMSTER, LIVER, S-9, AROCLOR 1254, Method: PREINCUBATION): active; positive | mutagenic call [2]: active; positive | mutagenic call [3]: active; positive | mutagenic call (Test System: AMES SALMONELLA TYPHIMURIUM, Strain/Indicator: TA1535, Metabolic Activation: HAMSTER, LIVER, S-9, AROCLOR 1254, Method: PREINCUBATION): active; positive | mutagenic call (Test System: AMES SALMONELLA TYPHIMURIUM, Strain/Indicator: TA1535, Metabolic Activation: NONE, Method: PREINCUBATION): active; positive | mutagenic call (Test System: AMES SALMONELLA TYPHIMURIUM, Strain/Indicator: TA1535, Metabolic Activation: RAT, LIVER, S-9, AROCLOR 1254, Method: PREINCUBATION): active; positive | mutagenic call (Test System: AMES SALMONELLA TYPHIMURIUM, Strain/Indicator: TA1537, Metabolic Activation: HAMSTER, LIVER, S-9, AROCLOR 1254, Method: PREINCUBATION): inactive; negative | mutagenic call (Test System: AMES SALMONELLA TYPHIMURIUM, Strain/Indicator: TA1537, Metabolic Activation: NONE, Method: PREINCUBATION): inactive; negative | mutagenic call (Test System: AMES SALMONELLA TYPHIMURIUM, Strain/Indicator: TA1537, Metabolic Activation: RAT, LIVER, S-9, AROCLOR 1254, Method: PREINCUBATION): inactive; negative | mutagenic call [4]: active; positive | mutagenic call (Test System: UDS RAT HEPATOCYTES, Metabolic Activation: NONE, Method: AUTORADIOGRAPHY): inactive; negative

O=C1C=CC(=O)N1c1ccc(Cc2ccc(N3C(=O)C=CC3=O)cc2)cc1
mutagenic call (Test System: AMES SALMONELLA TYPHIMURIUM, Strain/Indicator: TA98, Metabolic Activation: HAMSTER, LIVER, S-9, AROCLOR 1254 (10%), Method: STANDARD PLATE): inactive; negative | mutagenic call [5]: inactive; negative | mutagenic call (Test System: AMES SALMONELLA TYPHIMURIUM, Strain/Indicator: TA98, Metabolic Activation: RAT, LIVER, S-9, AROCLOR 1254 (10%), Method: STANDARD PLATE): inactive; negative | mutagenic call (Test System: AMES SALMONELLA TYPHIMURIUM, Strain/Indicator: TA100, Metabolic Activation: HAMSTER, LIVER, S-9, AROCLOR 1254 (10%), Method: STANDARD PLATE): inactive; negative | mutagenic call [6]: inactive; negative | mutagenic call (Test System: AMES SALMONELLA TYPHIMURIUM, Strain/Indicator: TA100, Metabolic Activation: RAT, LIVER, S-9, AROCLOR 1254 (10%), Method: STANDARD PLATE): inactive; negative | mutagenic call (Test System: AMES SALMONELLA TYPHIMURIUM, Strain/Indicator: TA1535, Metabolic Activation: HAMSTER, LIVER, S-9, AROCLOR 1254 (10%), Method: STANDARD PLATE): inactive; negative | mutagenic call [7]: inactive; negative | mutagenic call (Test System: AMES SALMONELLA TYPHIMURIUM, Strain/Indicator: TA1535, Metabolic Activation: RAT, LIVER, S-9, AROCLOR 1254 (10%), Method: STANDARD PLATE): inactive; negative | mutagenic call (Test System: AMES SALMONELLA TYPHIMURIUM, Strain/Indicator: TA1537, Metabolic Activation: HAMSTER, LIVER, S-9, AROCLOR 1254 (10%), Method: STANDARD PLATE): inactive; negative | mutagenic call [8]: inactive; negative | mutagenic call (Test System: AMES SALMONELLA TYPHIMURIUM, Strain/Indicator: TA1537, Metabolic Activation: RAT, LIVER, S-9, AROCLOR 1254 (10%), Method: STANDARD PLATE): inactive; negative | mutagenic call (Test System: AMES SALMONELLA TYPHIMURIUM, Strain/Indicator: TA1538, Metabolic Activation: HAMSTER, LIVER, S-9, AROCLOR 1254 (10%), Method: STANDARD PLATE): inactive; negative | mutagenic call [9]: inactive; negative | mutagenic call (Test System: AMES SALMONELLA TYPHIMURIUM, Strain/Indicator: TA1538, Metabolic Activation: RAT, LIVER, S-9, AROCLOR 1254 (10%), Method: STANDARD PLATE): inactive; negative | mutagenic call [4]: inactive; negative. reevaluation of results: negative | mutagenic call (Test System: MOUSE LYMPHOMA, Strain/Indicator: L5178Y (TK+/TK-), Metabolic Activation: RAT, LIVER, S-9, AROCLOR 1254, Method: SUSPENSION/PLATE): active; positive. reevaluation of results: equivocal

COc1cc2c3c(c1OC)-c1cc4c(cc1C[C@@H]3N(C)CC2)OCO4
mutagenic call (Test System: AMES SALMONELLA TYPHIMURIUM, Strain/Indicator: TA98, Metabolic Activation: RAT, LIVER, S-9, PHENOBARBITAL AND BETA-NAPHTHOFLAVONE, Method: PREINCUBATION): active; positive | mutagenic call (Test System: AMES SALMONELLA TYPHIMURIUM, Strain/Indicator: TA100, Metabolic Activation: RAT, LIVER, S-9, PHENOBARBITAL AND BETA-NAPHTHOFLAVONE, Method: PREINCUBATION): active; positive

C=C(C)C(=O)OCC(C)(C)COC(=O)C(=C)C
mutagenic call [5]: inactive; negative | mutagenic call (Test System: AMES SALMONELLA TYPHIMURIUM, Strain/Indicator: TA98, Metabolic Activation: RAT, LIVER, S-9, AROCLOR 1254, Method: STANDARD PLATE): inactive; negative | mutagenic call (Test System: AMES SALMONELLA TYPHIMURIUM, Strain/Indicator: TA98, Metabolic Activation: RAT, LIVER, S-9, SODIUM PHENOBARBITAL, Method: STANDARD PLATE): inactive; negative | mutagenic call [6]: inactive; negative | mutagenic call (Test System: AMES SALMONELLA TYPHIMURIUM, Strain/Indicator: TA100, Metabolic Activation: RAT, LIVER, S-9, AROCLOR 1254, Method: STANDARD PLATE): inactive; negative | mutagenic call (Test System: AMES SALMONELLA TYPHIMURIUM, Strain/Indicator: TA100, Metabolic Activation: RAT, LIVER, S-9, SODIUM PHENOBARBITAL, Method: STANDARD PLATE): inactive; negative | mutagenic call [7]: inactive; negative | mutagenic call (Test System: AMES SALMONELLA TYPHIMURIUM, Strain/Indicator: TA1535, Metabolic Activation: RAT, LIVER, S-9, AROCLOR 1254, Method: STANDARD PLATE): inactive; negative | mutagenic call (Test System: AMES SALMONELLA TYPHIMURIUM, Strain/Indicator: TA1535, Metabolic Activation: RAT, LIVER, S-9, SODIUM PHENOBARBITAL, Method: STANDARD PLATE): inactive; negative | mutagenic call [8]: inactive; negative | mutagenic call (Test System: AMES SALMONELLA TYPHIMURIUM, Strain/Indicator: TA1537, Metabolic Activation: RAT, LIVER, S-9, AROCLOR 1254, Method: STANDARD PLATE): inactive; negative | mutagenic call (Test System: AMES SALMONELLA TYPHIMURIUM, Strain/Indicator: TA1537, Metabolic Activation: RAT, LIVER, S-9, SODIUM PHENOBARBITAL, Method: STANDARD PLATE): inactive; negative | mutagenic call [9]: inactive; negative | mutagenic call (Test System: AMES SALMONELLA TYPHIMURIUM, Strain/Indicator: TA1538, Metabolic Activation: RAT, LIVER, S-9, AROCLOR 1254, Method: STANDARD PLATE): inactive; negative | mutagenic call (Test System: AMES SALMONELLA TYPHIMURIUM, Strain/Indicator: TA1538, Metabolic Activation: RAT, LIVER, S-9, SODIUM PHENOBARBITAL, Method: STANDARD PLATE): inactive; negative

Oc1c2c(c3c(ccc4c3ccc3ccc5ccccc5c34)c1O)O2
mutagenic call (Test System: AMES SALMONELLA TYPHIMURIUM, Strain/Indicator: TA97, Metabolic Activation: NONE, Method: PREINCUBATION): active; positive | mutagenic call [1]: active; positive | mutagenic call [2]: active; positive | mutagenic call (Test System: AMES SALMONELLA TYPHIMURIUM, Strain/Indicator: TA104, Metabolic Activation: NONE, Method: PREINCUBATION): active; positive | mutagenic call (Test System: CHINESE HAMSTER V-79, Strain/Indicator: V-79/6-THIOGUANINE, Metabolic Activation: NONE): active; positive

Cc1cc2c(O)cccc2c2cc3c(cc12)C=C[C@H](O)[C@H]3O
mutagenic call [3]: active; positive
